Experimental data reported in ChEMBL document CHEMBL1201862, “PubChem BioAssay data set” (2004).
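48-hour exposure; five concentrations; linearly interpolated endpoints. GI50 marks 50% less growth.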 Calls of active or inactive are those of the source. No stated cut-off is given here; in the data, active = GI50 up to about 1.1 µM and inactive = higher.

Columns and labels:
Assay in all cases: NCI-60 cell line screen, 48 h
A549 = test system: A549
ACHN = test system: ACHN
HOP-62 = test system: HOP-62
KM12 = test system: KM12
M14 = test system: M14
NCI-H226 = test system: NCI-H226
NCI-H460 = test system: NCI-H460
NCI-H522 = test system: NCI-H522
OVCAR-3 = test system: OVCAR-3
RPMI-8226 = test system: RPMI-8226
RXF 393 = test system: RXF 393
SF-268 = test system: SF-268
SF-295 = test system: SF-295
SK-MEL-5 = test system: SK-MEL-5
SK-OV-3 = test system: SK-OV-3
SNB-75 = test system: SNB-75
SW-620 = test system: SW-620
UACC-257 = test system: UACC-257
CAKI-1 = test system: CAKI-1

Measured: GI50

COc1cccc(C=O)c1[O-].COc1cccc(C=O)c1[O-].[Zn+2]
inactive: A549 > 100 µM | ACHN 44.1 µM | HOP-62 46.9 µM | KM12 > 100 µM | M14 36.3 µM | NCI-H226 > 100 µM | NCI-H460 42.1 µM | NCI-H522 > 100 µM | OVCAR-3 32.8 µM | RPMI-8226 49.1 µM | RXF 393 > 100 µM | SF-268 55.7 µM | SF-295 23.3 µM | SK-MEL-5 35.2 µM | SK-OV-3 36.6 µM | SNB-75 42 µM | SW-620 56.1 µM | UACC-257 33.9 µM

CN(C)NC(=S)NC12CC3CC(CC(C3)C1)C2
inactive: A549 > 100 µM | ACHN > 100 µM | CAKI-1 > 100 µM | HOP-62 > 100 µM | KM12 > 100 µM | M14 > 100 µM | NCI-H226 > 100 µM | NCI-H460 > 100 µM | NCI-H522 > 100 µM | OVCAR-3 > 100 µM | RXF 393 > 100 µM | SF-268 > 100 µM | SF-295 > 100 µM | SK-MEL-5 > 100 µM | SK-OV-3 > 100 µM | SNB-75 > 100 µM | SW-620 > 100 µM | UACC-257 > 100 µM

O=c1cc(-c2ccccc2)[nH]c2c(F)ccc(F)c12
inactive: A549 37.9 µM | ACHN > 100 µM | CAKI-1 56.6 µM | HOP-62 56 µM | KM12 18.5 µM | M14 35.4 µM | NCI-H226 37.6 µM | NCI-H460 32.5 µM | NCI-H522 27.7 µM | RPMI-8226 31.1 µM | RXF 393 97.1 µM | SF-268 > 100 µM | SF-295 33 µM | SK-MEL-5 44.1 µM | SK-OV-3 > 100 µM | SNB-75 15 µM | SW-620 35.3 µM | UACC-257 > 100 µM

O=C1CCCCC1C1(O)C(=O)Nc2cc(F)ccc21 (stereo unspecified)
inactive: A549 > 100 µM | ACHN > 100 µM | CAKI-1 > 100 µM | HOP-62 > 100 µM | KM12 > 100 µM | M14 > 100 µM | NCI-H226 > 100 µM | NCI-H460 > 100 µM | NCI-H522 > 100 µM | RPMI-8226 > 100 µM | RXF 393 > 100 µM | SF-268 > 100 µM | SF-295 > 100 µM | SK-MEL-5 > 100 µM | SK-OV-3 > 100 µM | SNB-75 > 100 µM | SW-620 > 100 µM | UACC-257 > 100 µM

NC1=NNC(=O)c2nnc3c(C(=O)O)cnn3c2S1
inactive: A549 > 100 µM | CAKI-1 > 100 µM | HOP-62 > 100 µM | KM12 > 100 µM | M14 > 100 µM | NCI-H522 > 100 µM | OVCAR-3 > 100 µM | RPMI-8226 > 100 µM | RXF 393 > 100 µM | SF-268 > 100 µM | SF-295 > 100 µM | SK-MEL-5 > 100 µM | SK-OV-3 > 100 µM | SNB-75 47.4 µM | SW-620 > 100 µM

CCOC(=O)[C@H]1CSC[C@@H](C(=O)OC)N1
inactive: A549 > 100 µM | ACHN > 100 µM | CAKI-1 > 100 µM | HOP-62 > 100 µM | KM12 > 100 µM | M14 > 100 µM | NCI-H460 > 100 µM | NCI-H522 > 100 µM | OVCAR-3 > 100 µM | RPMI-8226 > 100 µM | RXF 393 > 100 µM | SF-268 > 100 µM | SF-295 > 100 µM | SK-MEL-5 > 100 µM | SK-OV-3 > 100 µM | SNB-75 23.1 µM | SW-620 > 100 µM | UACC-257 > 100 µM

NC(=S)N/N=C1/C(=O)N(c2ccccc2)C(=O)C1C(=O)Nc1ccccc1 (stereo unspecified)
inactive: A549 > 100 µM | ACHN > 100 µM | CAKI-1 > 100 µM | HOP-62 > 100 µM | KM12 > 100 µM | M14 > 100 µM | NCI-H226 > 100 µM | NCI-H460 > 100 µM | NCI-H522 > 100 µM | OVCAR-3 > 100 µM | RXF 393 > 100 µM | SF-268 > 100 µM | SF-295 > 100 µM | SK-MEL-5 > 100 µM | SK-OV-3 > 100 µM | SNB-75 > 100 µM | SW-620 > 100 µM | UACC-257 > 100 µM

O=C1CCCc2c(O)ccc(O)c21
inactive: A549 > 100 µM | ACHN > 100 µM | HOP-62 > 100 µM | KM12 > 100 µM | M14 > 100 µM | NCI-H226 > 100 µM | NCI-H460 > 100 µM | NCI-H522 12.6 µM | OVCAR-3 > 100 µM | RPMI-8226 40.6 µM | RXF 393 > 100 µM | SF-268 48.5 µM | SF-295 > 100 µM | SK-MEL-5 > 100 µM | SK-OV-3 > 100 µM | SNB-75 38.5 µM | SW-620 61.2 µM | UACC-257 > 100 µM
